By IC50 is commonly meant the concentration that gives 50% inhibition.

Our source for the IC50, Activity and inhibition values is ChEMBL document CHEMBL3217533, “Inhibition of Ras-Effector Interaction by Cyclic Peptides” (Medchemcomm, 2013).

For data set [1], the target named is GTPase KRas (Homo sapiens, UniProt P01116, G12V). Briefly: Inhibition of recombinant HA-tagged K-Ras G12V mutant (unknown origin) assessed as disruption of interaction with GST-tagged Raf-RBD after overnight incubation by HTRF assay. For orientation: Time-resolved FRET reads energy transfer from a long-lived donor to a nearby acceptor.
Chain of GTPase KRas (P01116 whole entry G12V): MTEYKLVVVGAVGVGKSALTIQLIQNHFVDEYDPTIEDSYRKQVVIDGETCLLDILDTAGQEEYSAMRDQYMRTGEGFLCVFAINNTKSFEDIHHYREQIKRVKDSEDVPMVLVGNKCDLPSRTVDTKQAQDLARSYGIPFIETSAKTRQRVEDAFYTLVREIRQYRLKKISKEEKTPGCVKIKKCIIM
Data set [2] addresses T1, Tyrosine-protein phosphatase non-receptor type 2 (Homo sapiens) (UniProt P17706).
T1 sequence (whole entry): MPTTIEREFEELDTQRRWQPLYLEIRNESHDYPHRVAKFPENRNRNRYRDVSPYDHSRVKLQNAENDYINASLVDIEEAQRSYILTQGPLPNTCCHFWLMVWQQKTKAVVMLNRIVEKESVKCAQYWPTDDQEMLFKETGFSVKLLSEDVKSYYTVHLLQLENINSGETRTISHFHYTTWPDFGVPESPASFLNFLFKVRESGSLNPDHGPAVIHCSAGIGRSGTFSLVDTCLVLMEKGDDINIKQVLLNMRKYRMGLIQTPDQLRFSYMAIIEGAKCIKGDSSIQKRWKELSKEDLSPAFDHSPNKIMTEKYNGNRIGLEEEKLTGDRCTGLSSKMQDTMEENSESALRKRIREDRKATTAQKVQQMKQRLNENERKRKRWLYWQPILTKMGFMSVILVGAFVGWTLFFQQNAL
Briefly: Binding affinity to TCPTP (unknown origin) up to 20 uM by fluorescence anisotropic assay.

The subject of data set [3] is GTPase KRas (Homo sapiens), P01116 [G12V]. Description: Binding affinity to K-Ras G12V mutant (unknown origin) by surface plasmon resonance assay. A general note: Surface plasmon resonance follows binding to a sensor surface in real time, without labels.
In data set [4] the target is T2, Tyrosine-protein phosphatase non-receptor type 1 (Homo sapiens) (UniProt P18031).
T2 sequence (whole entry): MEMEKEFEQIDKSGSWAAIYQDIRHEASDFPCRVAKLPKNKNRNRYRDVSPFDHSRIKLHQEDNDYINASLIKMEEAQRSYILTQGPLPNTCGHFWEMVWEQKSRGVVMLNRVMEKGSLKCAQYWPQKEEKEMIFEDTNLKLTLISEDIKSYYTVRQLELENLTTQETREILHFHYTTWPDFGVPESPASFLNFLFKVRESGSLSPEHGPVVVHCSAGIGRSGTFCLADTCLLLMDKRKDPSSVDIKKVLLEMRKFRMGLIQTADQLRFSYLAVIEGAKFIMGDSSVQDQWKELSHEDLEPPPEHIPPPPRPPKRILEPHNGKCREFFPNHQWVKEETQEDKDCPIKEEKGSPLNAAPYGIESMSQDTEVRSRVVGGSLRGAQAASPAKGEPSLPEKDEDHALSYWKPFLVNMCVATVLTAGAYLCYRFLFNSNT
Briefly: Binding affinity to PTP1B (unknown origin) up to 20 uM by fluorescence anisotropic assay.

Data set [5] deals with Albumin (Bos taurus, UniProt P02769). Description: Binding affinity to bovine serum albumin up to 20 uM by fluorescence anisotropic assay. The following applies: cattle.
Chain of Albumin (P02769 whole entry, the tested form may be a part): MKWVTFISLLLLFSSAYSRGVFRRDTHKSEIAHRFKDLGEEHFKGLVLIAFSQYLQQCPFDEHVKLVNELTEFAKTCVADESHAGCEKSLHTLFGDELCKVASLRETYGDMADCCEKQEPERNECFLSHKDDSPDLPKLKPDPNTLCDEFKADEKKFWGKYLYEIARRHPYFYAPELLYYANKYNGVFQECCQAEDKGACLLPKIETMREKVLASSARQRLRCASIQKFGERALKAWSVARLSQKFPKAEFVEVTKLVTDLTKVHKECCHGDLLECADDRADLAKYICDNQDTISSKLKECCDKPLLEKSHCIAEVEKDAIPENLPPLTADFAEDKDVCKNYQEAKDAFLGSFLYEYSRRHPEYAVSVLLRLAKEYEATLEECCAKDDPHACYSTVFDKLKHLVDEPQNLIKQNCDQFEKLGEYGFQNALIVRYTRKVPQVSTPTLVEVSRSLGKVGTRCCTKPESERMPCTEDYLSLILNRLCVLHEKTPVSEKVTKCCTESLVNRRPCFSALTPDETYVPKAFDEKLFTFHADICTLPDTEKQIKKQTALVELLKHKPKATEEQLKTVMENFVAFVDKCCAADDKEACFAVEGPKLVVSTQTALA
Data set [6] has as its target SH2 domain-containing protein 2A (Homo sapiens) (UniProt Q9NP31). Description: Binding affinity to GST-tagged TSAD SH2 domain (unknown origin) up to 20 uM by fluorescence anisotropic assay.
Data set [7] can be described thus: Binding affinity to MBP-tagged VP35 (unknown origin) up to 20 uM by fluorescence anisotropic assay.
Data set [8] has as its system GTPase KRas (Homo sapiens), P01116 [G12V]. Description: Inhibition of K-Ras G12V mutant (unknown origin) assessed as disruption of interaction with GST-tagged Raf-RBD at 10 uM after 60 mins by fluorescence microscopic-based bead binding assay.
Data set [9] shares this test system. Conditions: 10 uM.
The test system is the same in data set [10]. Briefly: Inhibition of K-Ras G12V mutant (unknown origin) assessed as disruption of interaction with Tiam1 at 10 uM after 60 mins by fluorescence microscopic-based bead binding assay.
Data set [11] shares this test system. Description: Inhibition of K-Ras G12V mutant in human H358 cells assessed as decrease in Mek phosphorylation up to 16 hrs. The class given is cell-based.
For data set [12] the test system is unchanged. Briefly: Inhibition of K-Ras G12V mutant in human H358 cells assessed as decrease in Erk phosphorylation up to 16 hrs. The format is cell-based.
The test system is the same in data set [13]. Briefly: Inhibition of K-Ras G12V mutant in human A549 cells assessed as decrease in Mek phosphorylation up to 16 hrs. The format is cell-based.
For data set [14] the test system is unchanged. Description: Inhibition of K-Ras G12V mutant in human A549 cells assessed as decrease in Erk phosphorylation up to 16 hrs. The format is cell-based.
The test system is the same in data set [15]. Briefly: Inhibition of K-Ras G12V mutant (unknown origin) assessed as disruption fluorescein-labeled Raf binding to beads immobilized with K-Ras G12V mutant at 10 uM after 60 mins by fluorescence microscopic-based bead binding assay.
The test system is the same in data set [16]. Description: Binding affinity to K-Ras G12V mutant (unknown origin) after 2 hrs by fluorescence polarization-based spectrofluorimetric analysis. (Polarisation of emitted light reports the rotation of a fluorescent probe.)

Calls of active or inactive are those of the source. The calls are words filed in the database; no cut-off is given here. *1 amine or outer side, *2 acyl side, *3 side chain or, on linkers, in order; H or OH if unused. Where a SMILES comes first, the peptide text is derived from it. Bridges are numbered along the chain shown (N, C = ends). [ ]: non-standard residue; d: D form. dβ3h(hPhe) = O=C(C[C@@H](CCc1ccccc1)N[*:1])[*:2]; Phe(4-F) = N[C@@H](Cc1ccc(F)cc1)C(=O)O; X1 = CC(C)(CO[*:2])C(=O)C(=O)[*:1]; Pip = O=C(O)[C@@H]1CCCCN1

Chain of GTPase KRas (Homo sapiens), P01116 [G12V] (P01116 whole entry G12V): as the sequence (P01116 whole entry G12V) above
Chain of SH2 domain-containing protein 2A (Homo sapiens) (Q9NP31 whole entry, looked up, the tested form may be a part): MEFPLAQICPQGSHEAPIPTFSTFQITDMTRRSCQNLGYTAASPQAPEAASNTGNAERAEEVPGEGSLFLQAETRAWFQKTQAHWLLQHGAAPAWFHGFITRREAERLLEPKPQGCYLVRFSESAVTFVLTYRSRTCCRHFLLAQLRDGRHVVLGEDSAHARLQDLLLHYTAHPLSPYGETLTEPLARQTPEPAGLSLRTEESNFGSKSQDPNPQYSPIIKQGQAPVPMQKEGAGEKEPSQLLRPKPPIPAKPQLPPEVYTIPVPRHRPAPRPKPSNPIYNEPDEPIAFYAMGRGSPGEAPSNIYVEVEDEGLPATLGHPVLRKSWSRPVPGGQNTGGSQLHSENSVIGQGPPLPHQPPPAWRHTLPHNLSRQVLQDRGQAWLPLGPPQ

With `CC(C)C[C@@H]1NC(=O)[C@@H](Cc2ccc3ccccc3c2)NC(=O)[C@H](CCCNC(=N)N)NC(=O)[C@@H](C(C)C)NC(=O)[C@H](CCCNC(=N)N)NC(=O)[C@H](C)NC(=O)[C@H](CCC(N)=O)NC(=O)C[C@@H](CCc2ccccc2)NC(=O)[C@@H]2CCCCN2C(=O)C(=O)C(C)(C)COC1=O`, the IC50 in [1] was found to be 2000 nM.

For `CCCC[C@H]1NC(=O)[C@H](Cc2ccc(F)cc2)NC(=O)[C@H](CCCN=C(N)N)NC(=O)[C@@H](Cc2ccc3ccccc3c2)NC(=O)[C@H](CCCN=C(N)N)NC(=O)[C@H](CCCN=C(N)N)NC(=O)[C@H](CCC(N)=O)NC(=O)C[C@@H](CCc2ccccc2)NC(=O)[C@@H]2CCCCN2C(=O)C(=O)C(C)(C)COC1=O`, the outcome in [2], in data set [3], in [4], in [6] and in data set [7] was Active. Further, the result in [5] was Active. The inhibition entry in data set [8], in [9], in data set [10] and in data set [15] was “Active” in each case. In addition, the inhibition entry in data set [11], in data set [12], in data set [13] and in [14] was “inactive” in each case.

Consider `CCCC[C@H]1NC(=O)[C@@H](Cc2ccc3ccccc3c2)NC(=O)[C@@H](Cc2ccc3ccccc3c2)NC(=O)[C@@H](CCCCN)NC(=O)[C@H](CCCNC(=N)N)NC(=O)[C@H](Cc2ccc(F)cc2)NC(=O)[C@H](CCC(N)=O)NC(=O)C[C@@H](CCc2ccccc2)NC(=O)[C@@H]2CCCCN2C(=O)C(=O)C(C)(C)COC1=O`, for which, in [1], the IC50 was 10000 nM.

In the case of `CC1(C)COC(=O)[C@H](Cc2ccccc2)NC(=O)[C@H](CCCNC(=N)N)NC(=O)[C@@H](Cc2ccc3ccccc3c2)NC(=O)[C@H](CCCNC(=N)N)NC(=O)[C@@H](Cc2ccccc2)NC(=O)[C@H](CCCN=C(N)N)NC(=O)[C@H](CCC(N)=O)NC(=O)C[C@@H](CCc2ccccc2)NC(=O)[C@@H]2CCCCN2C(=O)C1=O`, the IC50 in data set [1] is 1100 nM.

With `C[C@@H]1NC(=O)[C@H](Cc2ccc(O)cc2)NC(=O)[C@H](CCCNC(=N)N)NC(=O)[C@@H]([C@H](C)O)NC(=O)CNC(=O)[C@H](CCC(N)=O)NC(=O)C[C@@H](CCc2ccccc2)NC(=O)[C@@H]2CCCCN2C(=O)C(=O)C(C)(C)COC(=O)[C@H](Cc2ccccc2)NC1=O`, the half-inhibitory concentration (IC50) in data set [1] was determined as 2300 nM.

`CC(C)C[C@@H]1NC(=O)[C@H](CCCNC(=N)N)NC(=O)[C@H](CCCNC(=N)N)NC(=O)[C@H](Cc2ccc(O)cc2)NC(=O)[C@H](Cc2ccc(F)cc2)NC(=O)[C@H](CCCNC(=N)N)NC(=O)[C@H](CCC(N)=O)NC(=O)C[C@@H](CCc2ccccc2)NC(=O)[C@@H]2CCCCN2C(=O)C(=O)C(C)(C)COC1=O` ([Pip][dβ3h(hPhe)]QR[Phe(4-F)]YRRL; linker N-C via X1): the outcome in data set [2], in [16], in [4], in data set [6] and in data set [7] was inactive. The Activity entry in data set [5] was “Not Active”.

With `CC1(C)COC(=O)[C@H](Cc2ccccc2)NC(=O)[C@H](CCCNC(=N)N)NC(=O)[C@H](Cc2ccc(O)cc2)NC(=O)[C@@H]2CCCN2C(=O)[C@H](Cc2ccc(O)cc2)NC(=O)[C@@H](Cc2ccccc2)NC(=O)[C@H](CCC(N)=O)NC(=O)C[C@@H](CCc2ccccc2)NC(=O)[C@@H]2CCCCN2C(=O)C1=O`, the IC50 in [1] was 10000 nM.

As to `CC(C)[C@@H]1NC(=O)[C@@H](CC(N)=O)NC(=O)[C@H](CCCNC(=N)N)NC(=O)[C@H](CCCNC(=N)N)NC(=O)[C@H](Cc2ccc(F)cc2)NC(=O)[C@H](Cc2ccc(O)cc2)NC(=O)[C@H](CCC(N)=O)NC(=O)C[C@@H](CCc2ccccc2)NC(=O)[C@@H]2CCCCN2C(=O)C(=O)C(C)(C)COC1=O`, the IC50 in data set [1] was 1200 nM.

For `CC(C)C[C@@H]1NC(=O)[C@H](CCC(=O)O)NC(=O)[C@H](c2ccccc2)NC(=O)[C@@H](Cc2ccccc2)NC(=O)[C@H](CCCN)NC(=O)[C@@H]2CCCN2C(=O)[C@H](CCC(N)=O)NC(=O)C[C@@H](CCc2ccccc2)NC(=O)[C@@H]2CCCCN2C(=O)C(=O)C(C)(C)COC1=O`, the IC50 in [1] stood at 10000 nM.

Regarding `CC1(C)COC(=O)[C@H](Cc2ccccc2)NC(=O)[C@H](CCCNC(=N)N)NC(=O)CNC(=O)[C@H](Cc2ccc(O)cc2)NC(=O)[C@@H](Cc2ccc3ccccc3c2)NC(=O)[C@H](CCCN)NC(=O)[C@H](CCC(N)=O)NC(=O)C[C@@H](CCc2ccccc2)NC(=O)[C@@H]2CCCCN2C(=O)C1=O`, the IC50 in [1] came to 1800 nM.
